Experimental data: US11466006B2, “Dual selective PI3 delta and gamma kinase inhibitors” (Rhizen Pharmaceuticals SA, priority 2013, dated 2022)
Like-named read-outs stand apart in the source and are kept apart here.

Experiments:
[1] = system: primary cells derived from B-cell lymphomas; assay: Anticancer activity in patient derived B-lymphoma cells (Annexin V/PI); assay type: cell-based; conditions: 4 μM, 48-h incubation
Protocol: Primary cells from lymphoid tumors were exposed to the test compound [Compound A1] to assess the induction of cell death. Cells were derived from diffuse large B-cell lymphoma (DLBCL), mantle cell lymphoma (MCL), splenic marginal zone lymphoma (SMZL), extranodal marginal zone lymphoma (EMZL), or chronic lymphocytic leukemia (CLL, no.=1). Cells were treated with desired concentrations of the compound and apoptosis (Annexin V/PI) was assessed by flow-cytometry after a 48-h incubation period.

[2] = system: ovalbumin sensitized mice; assay: Murine asthma model (ovalbumin sensitized mice); assay type: in vivo, mouse; conditions: 3 mg/kg oral
From the text: Airway inflammation and hyper-responsiveness (AHR) are hallmarks and distinguishing features of bronchial asthma. Provocation of pre-sensitized mice with the same allergen induces airway inflammation with preferential eosinophilic infiltration and, as a consequence, AHR. Pulmonary eosinophilia and airway remodelling in conjunction with altered neural control of airway tone and airway epithelial desquamation may contribute to AHR in asthma. After the quarantine period, based on their body weights, mice were randomized and divided into four groups (n=7). Tails were marked with an indelible marking pen for identification. On day 0, weights were recorded and animals were sensitized with 100 μg of Ovalbumin and 10 mg of alum solution (0.2 mL) intraperitoneally. On day 7 and day 14, the above sensitization protocol was repeated. […] On day 24, 25, and 26, after the treatment with test compound by oral gavage, 30 mins later animals were exposed to 10% w/v Ovalbumin challenge. […] Forty eight hours after last OVA challenge, airway hyperresponsiveness was measured by whole body plethysmograph against cumulative doses of methacholine challenge (2.5, 10, 50 and 100 mg/ml), after measuring the airway response, blood samples and BAL fluid was collected. Samples were analysed for total cell count by using neubuear chamber under microscope and differential leukocyte count was done manually.

PI3K alpha = target: T1, PI3K alpha (Mus musculus, UniProt P42337); assay: PDGF induced Akt phosphorylation in 3T3 cells (PI3Kα selectivity); assay type: cell-based
T1 construct: endogenous in cells; host or cells: 3T3 fibroblasts
Protocol: The objective of this study was to determine the effect of Compound A1 on PI3Kα kinase mediated AktS473 phosphorylation in PDGF induced 3T3 fibroblasts. • 3T3 cells were treated with desired concentrations of the test compound for 15 min. 1 ml of 2× PDGF was added such that the final concentration was 20 ng/ml and incubated for 10 min. • Media was discarded and washed with 1 ml of ice-cold 1× PBS. • 250 μl of cell lysis buffer was added and incubated on ice for 30 min. • Samples were centrifuged and supernatant was collected and stored at −80° C. until analysis. • Samples were analyzed by Western Blotting using pAKT (S473) as the primary and anti-rabbit IgG-HRP as a secondary antibody. • Intensity of the bands was determined using ImageJ 1.42q (NIH, USA) and normalized to Actin (loading control). Data was plotted using GraphPad Prism (Version 5.02).

Lewis rats = assay: Collagen induced arthritis in Lewis rats; assay type: in vivo, rat
[3] = system: anti-human CD3/CD28 co-stimulated primary T-cells; assay: Cytokine assay in anti-human CD3 and CD28 co-stimulated primary T-cells (ELISA); assay type: cell-based; conditions: T-cell, anti-human CD3-CD28 induced, 24 h, eight independent experiments
Protocol: The objective of this study was to assess the inhibitory potential of Compound A1 on cytokines produced by anti-human CD3/CD28 co-stimulated primary T-cells.
• Plates were coated with 50 μl of anti-human CD3 at a concentration of 100 ng/ml either overnight at 4° C. or for 2 h at 37° C. After incubation, plates were washed twice with sterile PBS to remove unbound antibody. • Isolated human T-cells were re-suspended to 0.625×10^6 cells per ml in 1.5 ml tubes and 1 μl of drug dilution (1000×) was added. A DMSO blank and un-induced blank were maintained. • Cells were incubated with compound at room temperature for 30 min and then added to anti-human CD3 coated wells of a 96-well plate, 240 μl each. Anti-human CD28 was added immediately, 10 μl (25×) per well. • Plate was incubated at 37° C., 5% CO2 for 24 h. • Plates were centrifuged at 4000 rpm at room temperature, supernatant was collected and stored at −20° C. • Cytokines were determined using a commercial ELISA kit with absorbance read at 450 and 570 nm.

pAKT [4] = assay: pAKT inhibition in human primary CTCL cells (flow cytometry); assay type: cell-based; conditions: cytokine mix stimulated, read-out: EC50, reduction of AKT phosphorylation
Protocol: Flow cytometry analysis of pAKT inhibition: Purified malignant T cells were isolated from donors and cultured overnight in RPMI/1% BSA. Cells were incubated with the test compound for 1.5 hr with a cytokine mix added for the final 30 minutes. The composition of the cytokine mix was 20 ng/ml IL2+5 ng/ml IL7+10 ng/ml IL15+10% FBS. AKT phosphorylation was determined by flow cytometry.

pAKT [5] = assay: Inhibition of AKT phosphorylation in leukemic cell lines (Western blot); assay type: cell-based; conditions: MOLT-4, Jurkat, CCRF-CEM, Hut-78 & HuT-102; 48 h; read-out: EC50, reduction in pAKT expression
Protocol: MOLT-4, Jurkat, CCRF-CEM, Hut-78, HuT-102, Sez4 and HH cells were incubated with desired concentrations of compound for 48 h. Cells were lysed and pAKT determined by Western Blotting. Bands were quantified using ImageJ and normalized to actin.

T1 sequence (P42337 whole entry): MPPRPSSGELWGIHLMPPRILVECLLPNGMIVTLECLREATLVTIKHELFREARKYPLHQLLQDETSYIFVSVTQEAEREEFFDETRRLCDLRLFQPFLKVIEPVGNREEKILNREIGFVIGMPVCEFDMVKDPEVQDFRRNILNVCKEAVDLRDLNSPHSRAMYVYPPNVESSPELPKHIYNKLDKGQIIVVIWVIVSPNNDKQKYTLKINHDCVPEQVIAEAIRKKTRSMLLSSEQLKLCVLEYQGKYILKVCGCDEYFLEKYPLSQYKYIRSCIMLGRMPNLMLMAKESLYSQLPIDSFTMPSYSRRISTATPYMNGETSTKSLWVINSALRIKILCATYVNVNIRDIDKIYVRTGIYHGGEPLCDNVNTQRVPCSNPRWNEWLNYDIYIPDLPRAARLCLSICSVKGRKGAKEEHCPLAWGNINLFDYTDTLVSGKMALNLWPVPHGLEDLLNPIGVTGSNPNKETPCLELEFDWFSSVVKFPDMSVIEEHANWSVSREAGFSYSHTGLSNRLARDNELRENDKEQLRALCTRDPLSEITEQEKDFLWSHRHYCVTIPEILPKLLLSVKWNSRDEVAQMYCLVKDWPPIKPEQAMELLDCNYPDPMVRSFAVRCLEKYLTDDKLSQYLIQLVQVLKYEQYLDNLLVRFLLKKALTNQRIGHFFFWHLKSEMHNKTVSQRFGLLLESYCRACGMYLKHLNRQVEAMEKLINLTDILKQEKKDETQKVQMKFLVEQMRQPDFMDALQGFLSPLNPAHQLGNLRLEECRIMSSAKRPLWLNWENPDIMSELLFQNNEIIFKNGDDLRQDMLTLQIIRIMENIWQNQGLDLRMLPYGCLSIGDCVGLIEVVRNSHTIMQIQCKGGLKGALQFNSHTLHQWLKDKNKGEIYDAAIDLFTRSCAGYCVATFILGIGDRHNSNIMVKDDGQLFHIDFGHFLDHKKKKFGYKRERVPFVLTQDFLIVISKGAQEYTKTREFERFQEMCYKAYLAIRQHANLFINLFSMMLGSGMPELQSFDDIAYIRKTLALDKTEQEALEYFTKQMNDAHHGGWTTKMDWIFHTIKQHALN
T1 sequence (P26450 whole entry partner): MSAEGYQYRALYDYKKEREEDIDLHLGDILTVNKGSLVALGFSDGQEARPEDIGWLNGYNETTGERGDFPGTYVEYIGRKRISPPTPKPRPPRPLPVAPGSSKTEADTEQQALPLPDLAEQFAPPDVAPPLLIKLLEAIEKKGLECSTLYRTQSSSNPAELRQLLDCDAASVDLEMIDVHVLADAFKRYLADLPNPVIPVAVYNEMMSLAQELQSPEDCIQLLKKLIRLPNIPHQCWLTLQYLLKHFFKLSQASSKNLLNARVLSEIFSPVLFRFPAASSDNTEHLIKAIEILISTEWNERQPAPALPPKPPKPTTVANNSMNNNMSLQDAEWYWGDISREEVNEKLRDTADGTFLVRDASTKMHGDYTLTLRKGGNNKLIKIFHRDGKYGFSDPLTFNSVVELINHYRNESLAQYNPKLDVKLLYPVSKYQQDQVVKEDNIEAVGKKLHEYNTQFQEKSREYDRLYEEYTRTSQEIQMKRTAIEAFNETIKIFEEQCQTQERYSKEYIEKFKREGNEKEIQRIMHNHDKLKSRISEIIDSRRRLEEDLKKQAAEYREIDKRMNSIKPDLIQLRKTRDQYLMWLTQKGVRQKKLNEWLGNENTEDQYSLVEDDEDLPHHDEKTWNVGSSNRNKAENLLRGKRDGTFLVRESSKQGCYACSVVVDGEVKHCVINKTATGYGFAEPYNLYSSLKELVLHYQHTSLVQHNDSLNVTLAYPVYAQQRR

For `CC[C@H](Nc1ncnc2[nH]cnc12)c1oc2ccccc2c(=O)c1-c1cccc(F)c1` [Compound A1, (S)-2-(1-(9H-purin-6-ylamino)propyl)-3-(3-fluorophenyl)-4H-chromen-4-one], the “cell death (apoptosis, Annexin V/PI)” value [1] was “increase in cell death”, the “airway hyperresponsiveness against methacholine challenge” value [2] was “significant reduction” and the “eosinophil infiltration into the bronchoalveolar lavage fluid” value [2] was “significant inhibition”. The “inhibition of PDGF induced AktS473 phosphorylation” value (PI3K alpha; at 10 μM, 3T3 fibroblasts) was “No inhibition”, the IC50 (PI3K alpha; read-out: Cellular IC50 PI3K alpha (PDGF induced pAKT in 3T3 fibroblasts)) was > 10000 nM and the “histological analysis of joints at study end” value (Lewis rats; 15 mg/kg) was “complete structural preservation”. For the same compound, the “individual and summed histopathological scores for knee and ankle” value (Lewis rats; 15 mg/kg/BID) was “significant reduction”, the “reduction of knee and ankle swelling” value (Lewis rats; rat CIA model, dosed therapeutically, oral) was “significant efficacy” and the IC50 ([3]; read-out: IC50, IFNγ) was 9.54 nM. It also gave an IC50 ([3]; read-out: IC50, IL2) of 20.6 nM, an IC50 ([3]; read-out: IC50, TNFα) of 24 nM and an EC50 (pAKT [4]) of 40 to 300 nM. It also gave an EC50 (pAKT [5]) of 500 to 2000 nM.
